Results on 32 molecules are retold here after US9725463B2, “Substituted heterocyclic compounds as CRAC modulators” (LUPIN LIMITED, priority 2013, dated 2017).

Broadly, the IC50 is the concentration that gives 50% inhibition. Low values mean higher potency, high ones lower potency.

The test relates to IL-2 secretion by Jurkat T cells. Kind of test: Inhibition of IL-2 secretion. Conditions: Homo sapiens; Jurkat T cells stimulated with PHA, 20 to 24 hours, IL-2 by ELISA. The class given is cell-based. The method, then:
The CRAC channel modulatory activity of the compounds were thus evaluated by measuring the secretion of IL-2 by antigen stimulated T-cells in vitro. Alternatively, such activity can also be evaluated by assay methods known to one skilled in the art.
Inhibition of IL-2 secretion: Jurkat T cells were seeded at a density of 0.5 to 1 million cells per well in RPMI medium. Test compounds from this invention were added to the cells at different concentrations. This was followed by the addition of PHA, a T cell mitogen after 10 minutes. The cells were then incubated for 20 to 24 hours in a CO2 incubator at 37° C. After incubation with the compounds, cells were centrifuged, the supernatant was collected and processed for ELISA to quantitate the amount of IL-2 secreted. A commercial ELISA kit (R&D Systems, Inc. Minneapolis, Minn., USA) was used to estimate the IL-2 concentrations. Amount of IL-2 secreted by cells stimulated with PHA was considered as a 100% maximal signal and the decrease in amount of IL-2 secreted by cells treated with the test compounds was expressed as percent inhibition of the maximal signal. The dose response data was analyzed using 4-parametric sigmoidal dose response (variable slope) curve-fit.
On the technique in general: In an ELISA, binding on a coated surface is turned into a signal by an enzyme label.
For the molecule `Cn1c(=O)oc2cc(C3CC3)c(-c3ccc(C(=O)Nc4c(F)cncc4F)cc3)cc21` [Example 93, 4-(6-Cyclopropyl-3-methyl-2-oxo-2,3-dihydrobenzo[d]oxazol-5-yl)-N-(3,5-difluoropyridin-4-yl)benzamide], the IC50 is under 25 nM.
With `CCc1cc2c(cc1-c1ccc(C(=O)Nc3c(F)cncc3F)cc1)N(C)C(=O)CO2` [Example 135, N-(3,5-Difluoropyridin-4-yl)-4-(7-ethyl-4-methyl-3-oxo-3,4-dihydro-2H-benzo[b][1,4]oxazin-6-yl)benzamide] the figure was 100 to 500 nM; with `CN1C(=O)COc2c1ncc(-c1ccc(NC(=O)c3c(F)cccc3F)cc1)c2C1CC1` [Example 112, N-(4-(8-Cyclopropyl-4-methyl-3-oxo-3,4-dihydro-2H-pyrido[3,2-b][1,4]oxazin-7-yl)phenyl)-2,6-difluorobenzamide], 25 to 50 nM.
With `Cn1c(=O)oc2cc(-c3cnc(NC(=O)c4c(F)cccc4F)cn3)c(C3CC3)cc21` [Example 72, N-(5-(5-Cyclopropyl-3-methyl-2-oxo-2,3-dihydrobenzo [d]oxazol-6-yl)pyrazin-2-yl)-2,6-difluorobenzamide] the figure was 50 to 100 nM.
With `Cc1cc2c(cc1-c1ccc(C(=O)Nc3c(F)cccc3F)s1)oc(=O)n2C` [Example 75, N-(2,6-Difluorophenyl)-5-(3,5-dimethyl-2-oxo-2,3-dihydrobenzo[d]oxazol-6-yl)thiophene-2-carboxamide] the figure was 25 to 50 nM; with `CCn1c(=O)oc2cc(C)c(-c3ccc(NC(=O)c4c(F)cccc4F)cc3)cc21` [Example 28, N-(4-(3-Ethyl-6-methyl-2-oxo-2,3-dihydrobenzo[d]oxazol-5-yl)phenyl)-2,6-difluorobenzamide], 50 to 100 nM; with `CCc1cc2c(cc1-c1cnc(NC(=O)c3c(F)cccc3F)cn1)oc(=O)n2C` [Example 70, N-(5-(5-Ethyl-3-methyl-2-oxo-2,3-dihydrobenzo [d]oxazol-6-yl)pyrazin-2-yl)-2,6-difluoro benzamide], under 25 nM.
`Cn1c(=O)oc2c(C3CC3)c(-c3ccc(NC(=O)c4c(F)cccc4Cl)cc3)ccc21` [Example 101, 2-Chloro-N-(4-(7-cyclopropyl-3-methyl-2-oxo-2,3-dihydrobenzo[d]oxazol-6-yl)phenyl)-6-fluorobenzamide] returned an IC50 of under 25 nM.
With `CN1C(=O)COc2cc(-c3ccc(NC(=O)c4c(F)cccc4F)nc3)c(C3CC3)cc21` [Example 115, N-(5-(6-Cyclopropyl-4-methyl-3-oxo-3,4-dihydro-2H-benzo[b][1,4]oxazin-7-yl)pyridin-2-yl)-2,6-difluorobenzamide] the figure was under 25 nM.
The same measure for `Cc1cc2oc(=O)n(CCC(F)(F)F)c2cc1-c1ccc(NC(=O)c2c(F)cccc2F)cc1` [Example 33, 2,6-Difluoro-N-(4-(6-methyl-2-oxo-3-(3,3,3-trifluoropropyl)-2,3-dihydrobenzo[d]oxazol-5-yl)phenyl) benzamide]: 100 to 500 nM; for `Cn1c(=O)oc2c(C3CC3)c(-c3ccc(NC(=O)c4c(F)cccc4F)cc3)cnc21` [Example 9, N-(4-(7-Cyclopropyl-3-methyl-2-oxo-2,3-dihydrooxazolo[4,5-b]pyridin-6-yl)phenyl)-2,6-difluorobenzamide]: 25 to 50 nM.
The same measure for `CCc1cc2oc(=O)n(C)c2cc1-c1ccc(C(=O)Nc2c(F)cccc2F)s1` [Example 88, N-(2,6-Difluorophenyl)-5-(6-ethyl-3-methyl-2-oxo-2,3-dihydrobenzo [d]oxazol-5-yl) thiophene-2-carboxamide]: under 25 nM; for `CN1C(=O)COc2cc(-c3cnc(NC(=O)c4c(F)cccc4F)cn3)c(C3CC3)cc21` [Example 116, N-(5-(6-Cyclopropyl-4-methyl-3-oxo-3,4-dihydro-2H-benzo[b][1,4]oxazin-7-yl)pyrazin-2-yl)-2,6-difluorobenzamide]: under 25 nM.
In turn, `Cc1nc2c(cc1-c1ccc(NC(=O)c3c(F)cccc3F)cc1)oc(=O)n2C` [Example 38, N-(4-(3,5-dimethyl-2-oxo-2,3-dihydrooxazolo [4,5-b]pyridin-6-yl)phenyl)-2,6-difluorobenzamide] showed an IC50 of under 25 nM.
The same measure for `Cn1c(=O)oc2c(C3CC3)c(-c3cnc(NC(=O)c4c(F)cccc4F)cn3)ccc21` [Example 26, N-(5-(7-Cyclopropyl-3-methyl-2-oxo-2,3-dihydrobenzo[d]oxazol-6-yl)pyrazin-2-yl)-2,6-difluorobenzamide]: 100 to 500 nM.
The same measure for `O=C(Nc1ccc(-c2ccc3c(oc(=O)n3C(F)F)c2C2CC2)cc1)c1c(F)cccc1F` [Example 95, N-(4-(7-Cyclopropyl-3-(difluoromethyl)-2-oxo-2,3-dihydrobenzo[d]oxazol-6-yl)phenyl)-2,6-difluorobenzamide]: under 25 nM; for `Cc1cc2c(cc1-c1ccc(NCc3c(F)cccc3F)cc1)OCC(=O)N2C` [Example 127, 7-(4-((2,6-Difluorobenzyl)amino)phenyl)-4,6-dimethyl-2H-benzo [b][1,4]oxazin-3(4H)-one]: 50 to 100 nM.
The same measure for `CCCn1c(=O)oc2cc(C)c(-c3ccc(NC(=O)c4c(F)cccc4F)cc3)cc21` [Example 34, 2,6-Difluoro-N-(4-(6-methyl-2-oxo-3-propyl-2,3-dihydrobenzo [d]oxazol-5-371)phenyl)benzamide]: under 25 nM; for `CCc1c(-c2cnc(NC(=O)c3c(F)cccc3F)cn2)cnc2c1oc(=O)n2C` [Example 6, N-(5-(7-Ethyl-3-methyl-2-oxo-2,3-dihydrooxazolo [4,5-b]pyridin-6-yl)pyrazin-2-yl)-2,6-difluorobenzamide]: 100 to 500 nM; for `CCc1cc2c(cc1-c1ccc(C(=O)Nc3c(F)cncc3F)cc1)oc(=O)n2C` [Example 90, N-(3,5-Difluoropyridin-4-yl)-4-(5-ethyl-3-methyl-2-oxo-2,3-dihydrobenzo [d]oxazol-6-yl) benzamide]: 25 to 50 nM.
As to `CN1C(=O)COc2c1ccc(-c1ccc(NC(=O)c3c(F)cccc3F)cc1)c2C1CC1` [Example 107, N-(4-(8-Cyclopropyl-4-methyl-3-oxo-3,4-dihydro-2H-benzo[b][1,4]oxazin-7-yl)phenyl)-2,6-difluorobenzamide], the IC50 is under 25 nM.
With `Cn1c(=O)oc2cc(C3CC3)c(-c3cnc(NC(=O)c4c(F)cccc4F)cn3)cc21` [Example 84, N-(5-(6-Cyclopropyl-3-methyl-2-oxo-2,3-dihydrobenzo [d]oxazol-5-yl)pyrazin-2-yl)-2,6-difluorobenzamide] the figure was 25 to 50 nM; with `Cc1cc2c(cc1-c1ccc(NC(=O)c3c(F)cccc3F)cc1)oc(=O)n2C` [Example 56, N-(4-(3,5-Dimethyl-2-oxo-2,3-dihydrobenzo [d]oxazol-6-yl)phenyl)-2,6-difluorobenzamide], under 25 nM.
With `CN1C(=O)COc2cc(-c3ccc(NCc4c(F)cccc4F)cc3)c(C3CC3)cc21` [Example 114, 6-Cyclopropyl-7-(4-((2,6-difluorobenzyl)amino)phenyl)-4-methyl-2H-benzo[b][1,4]oxazin-3(4H)-one] the figure was under 25 nM; with `Cn1c(=O)oc2c(C3CC3)c(-c3ccc(NC(=O)c4c(F)cccc4F)nc3)ccc21` [Example 25, N-(5-(7-Cyclopropyl-3-methyl-2-oxo-2,3-dihydrobenzo[d]oxazol-6-yl)pyridin-2-yl)-2,6-difluorobenzamide], 25 to 50 nM; with `Cc1cc2c(cc1-c1cnc(NC(=O)c3c(F)cccc3F)cn1)OCC(=O)N2C` [Example 126, N-(5-(4,6-Dimethyl-3-oxo-3,4-dihydro-2H-benzo[b][1,4]oxazin-7-yl)pyrazin-2-yl)-2,6-difluorobenzamide], 100 to 500 nM.
With `Cc1cc2oc(=O)n(C)c2cc1-c1cnc(NC(=O)c2c(F)cccc2F)cn1` [Example 51, N-(5-(3,6-dimethyl-2-oxo-2,3-dihydrobenzo[d]oxazol-5-yl)pyrazin-2-yl)-2,6-difluorobenzamide] the figure was 50 to 100 nM; with `CN1C(=O)COc2cc(-c3cnc(NC(=O)c4c(F)cccc4Cl)cn3)c(C3CC3)cc21` [Example 117, 2-Chloro-N-(5-(6-cyclopropyl-4-methyl-3-oxo-3,4-dihydro-2H-benzo[b][1,4]oxazin-7-yl)pyrazin-2-yl)-6-fluorobenzamide], 25 to 50 nM.
The molecule `Cc1cc2oc(=O)n(C(C)C)c2cc1-c1ccc(NC(=O)c2c(F)cccc2F)cc1` [Example 31, 2,6-Difluoro-N-(4-(3-isopropyl-6-methyl-2-oxo-2,3-dihydrobenzo[d]oxazol-5-yl)phenyl)benzamide] returned an IC50 of under 25 nM.
The same measure for `Cc1cc2oc(=O)n(C)c2cc1-c1ccc(NC(=O)c2c(F)cccc2Cl)cc1` [Example 46, 2-Chloro-N-(4-(3,6-dimethyl-2-oxo-2,3-dihydrobenzo[d]oxazol-5-yl)phenyl)-6-fluorobenzamide]: 25 to 50 nM; for `CCc1cc2c(cc1-c1ccc(NC(=O)c3c(F)cccc3F)cc1)N(C)C(=O)CO2` [Example 132, N-(4-(7-Ethyl-4-methyl-3-oxo-3,4-dihydro-2H-benzo[b][1,4]oxazin-6-yl)phenyl)-2,6-difluorobenzamide]: 25 to 50 nM; for `Cn1c(=O)oc2cc(-c3ccc(NC(=O)c4c(F)cccc4F)cc3)c(C3CC3)cc21` [Example 42, N-(4-(5-Cyclopropyl-3-methyl-2-oxo-2,3-dihydrobenzo[d]oxazol-6-yl)phenyl)-2,6-difluorobenzamide]: under 25 nM.
